# Source: patent publication US9212146B2, “Substituted pyridazinones for the treatment of tumors” (SHANGHAI INSTITUTE OF MATERIA MEDICA, CHINESE ACADEMY OF …, priority 2008, dated 2015)
# Tested on: human hepatoma cell line Bel-7402
# Experiment: SRB proliferation assay, Bel-7402
# Format: cell-based
# Details: BEL-7402 cultivated in vitro, 72 hours, given as bounds, read-out: The Inhibition Activities for Human Liver Cancer Cells BEL-7402 (IC50)
# Protocol: Protocol: the antineoplasmic activities in vitro of the compounds were assayed by a Sulforhodamine B (SRB) protocol. Tumor cells were cultivated at 37 under 5% CO2 in a RPMI 1640 medium or a DMEM medium (Gibco) containing 10% fetal bovine serum. Tumor cells were inoculated on a 96-well plate with a concentration of 0.4-1.0×10^4 cells per well according to the cell types. 24 hours later, the target compounds diluted 10 times were added, each compound having at least 5 concentrations. After treated by the compounds for 72 hours, the culture media were discarded, and the cells were fixed by 10% cold trichloroacetic acid, and then stained by Sulforhodamine B (SRB) solution. The uncombined SRB was washed off, and the SRB combined with protein was dissolved with Tris. OD values were recorded at 515 nm on an ELISA Reader, and the cell growth inhibition rate was calculated according to following equation: Inhibition rate=(ODcontrol−ODexperimental)/ODcontrol×100%
# IC50 (50% inhibitory concentration) was calculated by using Logit method based on the inhibition rates at various concentration, and the results are shown in tables 1 and 2.
# The following cell lines were used: human hepatocarcinoma cell line […]; ovarian cancer cell line SK-OV-3; human breast cancer cell line MDA-MB-231; human renal carcinoma cell line A498; colon adenocarcinoma cell line HT-29; non-small cell lung cancer cell line NCI-H460; lung adenocarcinoma cell line A549; human colon cancer cell line SW-620; human hepatoma cell line Bel-7402; human breast carcinoma cell line SK-BR-3; and human umbilical vein endothelial cells (HUVEC).
row,IC50 [µM],SMILES
1,< 0.1,COc1ccc(-c2ccc(=O)[nH]n2)cc1C(F)(F)F [YHHU-546]
2,< 10,O=c1ccc(-c2ccc(NC3CCCCC3)c(C(F)(F)F)c2)n[nH]1 [YHHU-715]

# Same assay, conditions: Homo sapiens, BEL-7402 cultivated in vitro, 72 hours, given as bounds, read-out: The Inhibition Activities for Human Liver Cancer Cells BEL-7402 (IC50)
row,SMILES,IC50 [µM]
1,CC1CN1c1ccc(-c2ccc(=O)[nH]n2)cc1C(F)(F)F (stereo not shown) [YHHU-748],< 0.01

# Same assay, conditions: Homo sapiens, Bel-7402, 72 h, BEL-7402 cultivated in vitro, given as bounds, read-out: The Inhibition Activities for Human Liver Cancer Cells BEL-7402 (IC50)
row,SMILES,IC50 [µM]
1,CN(C)COc1ccc(-c2ccc(=O)[nH]n2)cc1C(F)(F)F [YHHU-501],< 0.1
2,CC(C)C(Oc1ccc(-c2ccc(=O)[nH]n2)cc1C(F)(F)F)C(C)C [YHHU-502],< 0.1
3,O=c1ccc(-c2ccc(OC3CCCC3)c(C(F)(F)F)c2)n[nH]1 [YHHU-503],< 0.1
4,CCOC(=O)CSc1ccc(-c2ccc(=O)[nH]n2)cc1C(F)(F)F [YHHU-532],< 0.1
5,O=c1ccc(-c2ccc(CCN3CCCCC3)c(C(F)(F)F)c2)n[nH]1 [YHHU-575],< 0.1
6,O=c1ccc(-c2ccc(O)c(C(F)(F)F)c2)n[nH]1 [YHHU-580],< 0.1
7,Cc1ccc(-c2ccc(=O)[nH]n2)cc1C(F)(F)F [YHHU-581],< 0.1
8,O=c1ccc(-c2ccc(OCCC(F)(F)F)c(C(F)(F)F)c2)n[nH]1 [YHHU-586],< 0.1
9,CCSc1ccc(-c2ccc(=O)[nH]n2)cc1C(F)(F)F [YHHU-589],< 0.1
10,CN1CCCC(COc2ccc(-c3ccc(=O)[nH]n3)cc2C(F)(F)F)C1 (stereo not shown) [YHHU-590],< 0.1
11,O=c1ccc(-c2ccc(OC3CCCCCC3)c(C(F)(F)F)c2)n[nH]1 [YHHU-598],< 0.1
12,CN(C)c1ccc(-c2ccc(=O)[nH]n2)cc1C(F)(F)F [YHHU-647],< 0.01
13,O=c1ccc(-c2ccc(Nc3ccccc3)c(C(F)(F)F)c2)n[nH]1 [YHHU-658],< 0.1
14,O=C(O)[C@@H]1CC(O)CN1c1ccc(-c2ccc(=O)[nH]n2)cc1C(F)(F)F (stereo partly shown) [YHHU-666],< 1
15,O=C1CCCN1c1ccc(-c2ccc(=O)[nH]n2)cc1C(F)(F)F [YHHU-667],< 0.1
16,O=C1CSC(=S)N1c1ccc(-c2ccc(=O)[nH]n2)cc1C(F)(F)F [YHHU-668],< 1
17,C[C@@H]1CN(c2ccc(-c3ccc(=O)[nH]n3)cc2C(F)(F)F)C[C@H](C)O1 [YHHU-669],< 0.01
18,O=c1ccc(-c2ccc(N3CCSC3)c(C(F)(F)F)c2)n[nH]1 [YHHU-670],< 1
19,O=C1CCN(c2ccc(-c3ccc(=O)[nH]n3)cc2C(F)(F)F)CC1 [YHHU-672],< 0.1
20,O=C1CSC(=O)N1c1ccc(-c2ccc(=O)[nH]n2)cc1C(F)(F)F [YHHU-674],< 1
21,C[C@H]1CN(c2ccc(-c3ccc(=O)[nH]n3)cc2C(F)(F)F)CCN1 [YHHU-675],< 0.01
22,CN(C)[C@H]1CCN(c2ccc(-c3ccc(=O)[nH]n3)cc2C(F)(F)F)C1 [YHHU-676],< 0.01

row,SMILES,IC50 [µM]
1,O=c1ccc(-c2ccc(N3CCNCC3)c(C(F)(F)F)c2)n[nH]1 [YHHU-677],< 0.1
2,CC(C)(C)OC(=O)N1CCN(c2ccc(-c3ccc(=O)[nH]n3)cc2C(F)(F)F)CC1 [YHHU-678],< 0.01
3,CN(CCO)c1ccc(-c2ccc(=O)[nH]n2)cc1C(F)(F)F [YHHU-681],< 1
4,C[C@@H]1CN(c2ccc(-c3ccc(=O)[nH]n3)cc2C(F)(F)F)CCN1 [YHHU-682],< 0.01
5,CN(C)[C@@H]1CCN(c2ccc(-c3ccc(=O)[nH]n3)cc2C(F)(F)F)C1 [YHHU-683],< 0.1
6,CC(C)N(c1ccc(-c2ccc(=O)[nH]n2)cc1C(F)(F)F)C(C)C [YHHU-688],< 0.01
7,O=c1ccc(-c2ccc(NC3CCCC3)c(C(F)(F)F)c2)n[nH]1 [YHHU-689],< 0.1
8,O=c1ccc(-c2ccc(NCC3CCCCC3)c(C(F)(F)F)c2)n[nH]1 [YHHU-696],< 0.1
9,O=c1ccc(-c2ccc(SCCO)c(C(F)(F)F)c2)n[nH]1 [YHHU-700],< 10
10,CN(C)Cc1ccc(-c2ccc(=O)[nH]n2)cc1C(F)(F)F [YHHU-701],< 0.01
11,O=c1ccc(-c2ccc(C#Cc3ccc(C(F)(F)F)cc3)c(C(F)(F)F)c2)n[nH]1 [YHHU-702],< 10
12,O=c1ccc(-c2ccc(-c3ccccc3)c(C(F)(F)F)c2)n[nH]1 [YHHU-703],< 10
13,O=c1ccc(-c2ccc(-n3ccnc3)c(C(F)(F)F)c2)n[nH]1 [YHHU-706],< 10
14,O=c1ccc(-c2ccc(-c3cccnc3)c(C(F)(F)F)c2)n[nH]1 [YHHU-709],< 10
15,O=c1ccc(-c2ccc(C(F)(F)F)c(C(F)(F)F)c2)n[nH]1 [YHHU-710],< 10
16,O=c1ccc(-c2ccc(NC3CCC(O)CC3)c(C(F)(F)F)c2)n[nH]1 (stereo not shown) [YHHU-711],< 1
17,O=c1ccc(-c2ccc(NC3CCCC(O)C3)c(C(F)(F)F)c2)n[nH]1 (stereo not shown) [YHHU-712],< 1
18,O=c1ccc(-c2ccc(NC3CCCCC3O)c(C(F)(F)F)c2)n[nH]1 (stereo not shown) [YHHU-716],< 10
19,Cc1ccc(Sc2ccc(-c3ccc(=O)[nH]n3)cc2C(F)(F)F)cc1 [YHHU-717],> 1
20,O=c1ccc(-c2ccc(N3CC4CCCC4C3)c(C(F)(F)F)c2)n[nH]1 (stereo not shown) [YHHU-718],< 10
21,CN(C)CCNc1ccc(-c2ccc(=O)[nH]n2)cc1C(F)(F)F [YHHU-745],> 1
22,O=c1ccc(-c2ccc(N3CCCCCC3)c(C(F)(F)F)c2)n[nH]1 [YHHU-747],< 0.01

# More lines, now with the values ahead:
row,IC50 [µM],SMILES
1,< 0.1,O=c1ccc(-c2ccc(CO)c(C(F)(F)F)c2)n[nH]1 [YHHU-574]
2,< 0.1,CCOc1ccc(-c2ccc(=O)[nH]n2)cc1C(F)(F)F [YHHU-578]
3,< 0.1,O=c1ccc(-c2ccc(OCCBr)c(C(F)(F)F)c2)n[nH]1 [YHHU-579]
4,< 0.1,O=c1ccc(-c2ccc(OCCOCCO)c(C(F)(F)F)c2)n[nH]1 [YHHU-582]
5,< 0.1,O=c1ccc(-c2ccc(CCN3CCOCC3)c(C(F)(F)F)c2)n[nH]1 [YHHU-585]
6,< 0.1,O=c1ccc(-c2ccc(OC34CC5CCC(C3)C(C5)C4)c(C(F)(F)F)c2)n[nH]1 (stereo not shown) [YHHU-592]
7,< 0.1,CC1CCC(C(C)C)C(Oc2ccc(-c3ccc(=O)[nH]n3)cc2C(F)(F)F)C1 (stereo not shown) [YHHU-595]
8,< 0.1,CC(Oc1ccc(-c2ccc(=O)[nH]n2)cc1C(F)(F)F)N1CCCCC1 (stereo not shown) [YHHU-597]
9,< 0.1,O=c1ccc(-c2ccc(NCc3ccccc3)c(C(F)(F)F)c2)n[nH]1 [YHHU-659]
10,< 0.01,CCOC(=O)C1CCCN(c2ccc(-c3ccc(=O)[nH]n3)cc2C(F)(F)F)C1 (stereo not shown) [YHHU-671]
11,< 1,O=C1CCC(=O)N1c1ccc(-c2ccc(=O)[nH]n2)cc1C(F)(F)F [YHHU-673]
12,< 0.1,O=c1ccc(-c2ccc(N3CCC(CCO)CC3)c(C(F)(F)F)c2)n[nH]1 [YHHU-679]
13,< 0.01,O=c1ccc(-c2ccc(N3CCN(CCO)CC3)c(C(F)(F)F)c2)n[nH]1 [YHHU-685]
14,< 0.1,CCOC(=O)C1CCN(c2ccc(-c3ccc(=O)[nH]n3)cc2C(F)(F)F)CC1 [YHHU-693]
15,< 0.1,CSc1ccc(-c2ccc(=O)[nH]n2)cc1C(F)(F)F [YHHU-694]
16,< 10,O=c1ccc(-c2ccc(OC(F)(F)F)c(C(F)(F)F)c2)n[nH]1 [YHHU-707]
17,< 1,O=c1ccc(-c2ccc(OCC3CC3)c(C(F)(F)F)c2)n[nH]1 [YHHU-713]
18,< 10,O=c1ccc(-c2ccc(OCc3ccccc3)c(C(F)(F)F)c2)n[nH]1 [YHHU-714]
19,> 1,CN(C)CCN(C)c1ccc(-c2ccc(=O)[nH]n2)cc1C(F)(F)F [YHHU-746]
20,< 0.01,CC(O)C1CCN(c2ccc(-c3ccc(=O)[nH]n3)cc2C(F)(F)F)CC1 (stereo not shown) [YHHU-751]
